According to US20150250864A1, “ANTI-CANCER VACCINES” (Board of Regents, The University of Texas System, priority 2012, published 2015):

Legend:
Type in all cases: cell-based, human
[1] = system: T cells in PBMCs; test: Granzyme B release by ELISA from PBMC stimulated with peptides or protein; details: breast cancer patient (BC243) vs 3 normal donors
Source text: (§1) FIG. 19. T cell stimulation by HERV-K peptides. Peptides (p73-76 and p18-135) or HERV-K SU fusion proteins were used to stimulate PBMC and evaluated in vitro for their ability to stimulate T cells in PBMCs from healthy subjects and/or cancer patients, based on Granzyme B (Top panel) and interlukin-2 (IL-2; bottom panel) release by ELISA. OD values of Granzyme B or IL-2 release were compared between normal donors (ND427478, ND329966, and ND341277) and cancer patients (BC243 and OC212).
(§2) Cancer patients were enrolled to evaluate HERV-K as a tumor associated antigen target. Patients provided written informed consent as part of an approved protocol (LAB04-0083) at MD Anderson Cancer Center prior to commencing the studies. […] HLA-A*02 expression in PBMCs obtained from cancer patients and healthy subjects was determined by flow cytometry with PE Mouse anti-human HLA-A2 mAb BB7.2 (BD Pharmingen; San Diego, Calif., USA). […] After 14 days of culture, the supernatants from cell culture media (PBMC pulsed with peptides or proteins) were harvested and tested for their ability to produce IFN-gamma or IL-2, and granzyme B release was also determined by enzyme-linked immunosorbent assay (ELISA) assay. […] Absorbance was measured after 10 min of incubation in the dark and the plate was read on a Wallac Victor 2 V Microplate Reader (PerkinElmer, Waltham, Mass.). […]

[2] = system: T cells in PBMCs; test: IFN-γ release by ELISA from PBMC stimulated with peptides or protein; details: for IFN-γ release (OD values): stimulated PBMC, FIG. 21A
Source text: FIG. 17. T cell stimulation by HERV-K peptides. Peptides (p73-76 and p18-135) or HERV-K SU fusion proteins were used to stimulate PBMC and evaluated in vitro for their ability to stimulate T cells in PBMCs from healthy subjects (ND1007083; left) and/or cancer patients (BC 243; right), based on interferon-γ(IFN-γ) release by ELISA. KLH peptide and GST protein were used as controls. Other negative controls included media only, DMSO, and PBS.
FIG. 18. T cell stimulation by HERV-K peptides. Peptides (p73-76: left; and p18-135: middle) or HERV-K SU fusion proteins (right) were used to stimulate PBMC and evaluated in vitro for their ability to stimulate T cells in PBMCs from healthy subjects and/or cancer patients (BC 243; middle), based on interferon-γ (IFN-γ) release by ELISA. OD values of interferon-γ (IFN-γ) release were compared between normal donors (ND447549, ND1001366, and ND1007083) and cancer patients (OC222, OC 210, OC212, and BC243). OC is ovarian cancer and BC is breast cancer
FIGS. 21A-C. T Cell Stimulation. 9 mer Peptides (HERVK-3, HERVK-4, HERVK-11, and HERVK-18; see Table 1), p73-76 and p18-135 (Table 1 178 and 179), or HERV-K SU fusion proteins were used to stimulate PBMC and evaluated in vitro for their ability to stimulate T cells in PBMCs from healthy subjects and/or cancer patients, based on IFN-γ and Granzyme B release by ELISA. (FIG. 21A) OD values of IFN-γ release were compared in a normal donor (ND291812). (FIG. 21B) OD values of IFN-γ release were compared between a normal donor (ND291817) and an ovarian cancer patient (OC153). (FIG. 21C) OD values of Granzyme B release were compared between a normal donor (ND291817) and an ovarian cancer patient (OC153). Each dot represents an individual clone. Negative controls measured release of effector molecules from cancer cells after treatment with supernatants obtained from PBMCs without stimulation with HERV-K peptides or protein; positive controls were stimulated with PMA/ONO.
Cancer patients were enrolled to evaluate HERV-K as a tumor associated antigen target. Patients provided written informed consent as part of an approved protocol (LAB04-0083) at MD Anderson Cancer Center prior to commencing the studies. Normal healthy donor control blood samples were obtained from Gulf Coast Regional Blood Center, Houston Tex. 40 mL of peripheral blood was obtained from each patient, and peripheral blood mononuclear cells (PBMCs) were isolated by density gradient centrifugation using Histopaque-1077 (Sigma-Aldrich; USA). HLA-A*02 expression in PBMCs obtained from cancer patients and healthy subjects was determined by flow cytometry with PE Mouse anti-human HLA-A2 mAb BB7.2 (BD Pharmingen; San Diego, Calif., USA). Mouse IgG2b was used as an isotype control. PBMCs (5×10^5 cells/well) from either healthy subjects or cancer patients were incubated with Peptide #18-135 ([…]; SEQ ID NO: 178), Peptide #73-76 ([…]; SEQ ID NO: 179) or KLH as control peptide) or proteins (HERV-K env SU protein or GST protein as control) at concentrations of 40 μg/mL in 96-well U-bottom microplates (BD; Franklin Lakes, N.J., USA) in 100 μL of T-cell medium (TCM), consisting of RPMI 1640 (Mediatech; Manassas, Va., USA), 10% human AB serum (Valley Biomedical, Winchester, USA), […] 2-mercaptoethanol, 100 IU/mL interleukin-2 (IL-2), and 0.1 mM MEM nonessential amino acid solution (Invitrogen; Grand Island, N.Y., USA). Half of the TCM was removed and replaced with fresh TCM containing peptides (20 μg/mL) on day 7. After 14 days of culture, the supernatants from cell culture media (PBMC pulsed with peptides or proteins) were harvested and tested for their ability to produce IFN-gamma or IL-2, and granzyme B release was also determined by enzyme-linked immunosorbent assay (ELISA) assay. In order to detect the secreted cytokine in this assay, high-binding plates were coated with 5 μg/ml anti-IFN-γ (Mabtech, Stockholm, Sweden) diluted in PBS buffer at 4° C. overnight. […]

[3] = system: T cells in PBMCs; test: IL-2 release by ELISA from PBMC stimulated with peptides or protein; details: normal donors vs cancer patients
Source text: as §1, §2

[4] = system: IVS cells; test: IFN-γ ELISPOT of IVS cells stimulated with HERV-K SU or TM antigen; details: ovarian cancer patient compared with normal female donor(s)
Source text: FIGS. 2A-D. IFN-γ ELISPOT was used to determine HERV-K-specific T cell response. (FIG. 2A) More spots (red box) were detected in IVS cells (DC+KSU) from an ovarian cancer patient with moderately to poorly differentiated adenocarcinoma, in comparison to three normal female donors (ND263559, 273010, and 273011; black boxes) stimulated with a single HERV-K SU protein. […] (FIG. 2B) More spots (red box for KSU and green box for KTM) were detected in IVS cells (DC+KSU) from an ovarian cancer patient (Acc 153) with high grade papillary serous carcinoma before surgery (0 month) or after surgery (6 months), compared to one normal donor (ND 273011) stimulated one time with HERV-K SU protein. IVS cells were generated from PBMC stimulated with a single HERV-K SU or TM antigen. No spot was detected in controls using KLH as antigen. (FIG. 2C) IFN-γ spots were detected in IVS cells (1×10^5 cells loaded) from cancer patients (#816463 and #618329: blood collected 6 months after surgery) but not in a breast cancer patient with invasive ductal carcinoma (#814349, collected 6 months after surgery) or a patient (717335) with a mass (no malignancy identified), stimulated one time with either HERV-K SU (surface domain of env protein) or TM (transmembrane domain) protein. DC pulsed with KLH served as control. […]

Substance | granzyme B release [1] | IFN-γ release ([2]; peripheral T cells from both healthy subjects (ND1007083) and cancer patients (BC 243)) | IFN-γ release (OD values) [2] | IL-2 release [3] | IFN-γ release ([2]; peripheral T cells from most cancer patients (OC222, OC210, OC212, BC 243)) | number of IFN-γ spots in IVS cells [4]
IINLILILVCLFCLLLVCRCTQQLR [Peptide #18-135] | to a greater extent than in 3 normal donors | induce IFN-γ release | Higher IFN-γ release | in normal donors to a greater extent than in cancer patients |  | 
SQTITCENCRLLSCIDSTFNWQHRILL [Peptide #73-76] | to a greater extent than in 3 normal donors |  | Higher IFN-γ release | in normal donors to a greater extent than in cancer patients | induce IFN-γ release | 
keyhole limpet hemocyanin [KLH] |  |  |  |  |  | No spots were detected
